Measured values from ChEMBL document CHEMBL3352523, “Synthesis and biological evaluation of podophyllotoxin congeners as tubulin polymerization inhibitors” (Bioorg Med Chem, 2014).
Active and inactive are the calls of the source. No cut-off for these calls is given here.

What was measured:
HeLa [1] = experiment: Antiproliferative activity against human HeLa cells assessed as growth inhibition after 48 hrs by SRB assay; type: functional
MCF7 = experiment: Antiproliferative activity against human MCF7 cells assessed as growth inhibition after 48 hrs by SRB assay; type: functional; details: MCF7, 48 h
[2] = (§1) Antiproliferative activity against human MIAPaCa2 cells assessed as growth inhibition after 48 hrs by SRB assay; type: functional; details: MIA PaCa-2, 48 h
Tubulin = Tubulin (Bos taurus, UniProt Q6B856+Q862L2+Q862F3); experiment: Inhibition of bovine brain tubulin polymerization by fluorescence analysis
HeLa [3] = experiment: Antimitotic activity against human HeLa cells assessed as accumulation at G2/M phase at 5 uM after 24 hrs by PI staining based flow cytometry (reference value: 18.35%); type: functional
HeLa [4] = experiment: Induction of microtubule destabilization in human HeLa cells at 5 uM after 24 hrs by immunoblot analysis; type: cell-based
HeLa [5] = experiment: Induction of microtubule depolymerization in human HeLa cells at 5 uM after 24 hrs by DAPI staining; type: cell-based
MIA PaCa-2 = experiment: as §1; type: functional

Which results are given for COc1cc([C@@H]2c3cc4c(cc3[C@H](O)[C@H]3COC(=O)[C@H]23)OCO4)cc(OC)c1OC [PODOFILOX]?
GI50 (HeLa [1]): 0.74 µM; GI50 (MCF7): 0.31 µM; GI50 [2]: 0.51 µM

With COc1cc([C@@H]2c3cc4c(cc3[C@@H](O[C@@H]3O[C@@H]5CO[C@@H](C)O[C@H]5[C@H](O)[C@H]3O)[C@H]3COC(=O)[C@H]23)OCO4)cc(OC)c1O [ETOPOSIDE] as the compound, how does the GI50 (HeLa [1]) read?
The GI50 was 0.62 µM.

What about the GI50 (MCF7) of the same compound?
The GI50 was 0.25 µM.

And the GI50 [2]?
The GI50 was 1.1 µM.

For COC(=O)[C@H]1C(c2nc3cc(C(F)(F)F)cc(Br)c3[nH]2)=Cc2cc3c(cc2[C@H]1c1cc(OC)c(OC)c(OC)c1)OCO3, which GI50 (HeLa [1]) is on record?
Its GI50 is 6.4 µM.

And the GI50 (MCF7)?
Its GI50 is 2.1 µM.

What about the GI50 [2] of the same compound?
The GI50 was 3.1 µM.

For COC(=O)[C@H]1C(c2nc3ccc(F)cc3[nH]2)=Cc2cc3c(cc2[C@H]1c1cc(OC)c(OC)c(OC)c1)OCO3, which GI50 (HeLa [1]) is on record?
The GI50 was 4.3 µM.

What about the GI50 (MCF7) of the same compound?
Its GI50 is 0.02 µM.

And the GI50 [2]?
The GI50 was 3.9 µM.

Which GI50 (HeLa [1]) does the source give for COC(=O)[C@H]1C(c2nc3cc4ccccc4cc3[nH]2)=Cc2cc3c(cc2[C@H]1c1cc(OC)c(OC)c(OC)c1)OCO3 here?
The GI50 was 3.8 µM.

And the GI50 (MCF7)?
The GI50 was 1.2 µM.

What about the GI50 [2] of the same compound?
The GI50 was 2.56 µM.

What does the source list for COC(=O)[C@H]1C(c2nc3ccccc3[nH]2)=Cc2cc3c(cc2[C@H]1c1cc(OC)c(OC)c(OC)c1)OCO3?
IC50 (Tubulin): 1.29 µM; GI50 (HeLa [1]): 0.2 µM; GI50 (MCF7): 0.2 µM; GI50 [2]: 1.2 µM; Activity (HeLa [3]): 56.05%

With COC(=O)Nc1nc2cc(C(=O)c3cccs3)ccc2[nH]1 [NOCODAZOLE] as the compound, how does the GI50 (HeLa [1]) read?
Its GI50 is 0.81 µM.

What about the GI50 (MCF7) of the same compound?
Its GI50 is 0.94 µM.

What about the GI50 [2] of the same compound?
The GI50 was 0.95 µM.

For COC(=O)[C@H]1C(c2nc3ccc(OC)cc3[nH]2)=Cc2cc3c(cc2[C@H]1c1cc(OC)c(OC)c(OC)c1)OCO3, which IC50 (Tubulin) is on record?
The IC50 was 0.91 µM.

And the GI50 (HeLa [1])?
The GI50 was 1.04 µM.

And the Activity (HeLa [4])?
The Activity was “Active”.

What about the GI50 (MCF7) of the same compound?
The GI50 was 2.1 µM.

What about the GI50 [2] of the same compound?
Its GI50 is 1.6 µM.

What about the Activity (HeLa [5]) of the same compound?
Its Activity is “Active”.

And the Activity (HeLa [3])?
The Activity was 68.91%.

Which GI50 (HeLa [1]) does the source give for COC(=O)[C@H]1C(c2nc3ccc(Cl)cc3[nH]2)=Cc2cc3c(cc2[C@H]1c1cc(OC)c(OC)c(OC)c1)OCO3 here?
Its GI50 is 2.16 µM.

And the GI50 (MCF7)?
Its GI50 is 2.09 µM.

What about the GI50 [2] of the same compound?
The GI50 was 1.3 µM.

For COC(=O)[C@H]1C(c2nc3cc(C)c(C)cc3[nH]2)=Cc2cc3c(cc2[C@H]1c1cc(OC)c(OC)c(OC)c1)OCO3, which GI50 (HeLa [1]) is on record?
Its GI50 is 3.6 µM.

And the GI50 (MCF7)?
The GI50 was 0.16 µM.

And the GI50 [2]?
The GI50 was 1.5 µM.

With COC(=O)[C@H]1C(c2nc3ccc(Br)cc3[nH]2)=Cc2cc3c(cc2[C@H]1c1cc(OC)c(OC)c(OC)c1)OCO3 as the compound, how does the IC50 (Tubulin) read?
The IC50 was 0.86 µM.

What about the GI50 (HeLa [1]) of the same compound?
The GI50 was 0.21 µM.

And the Activity (HeLa [4])?
Its Activity is “Active”.

And the GI50 (MCF7)?
The GI50 was 0.54 µM.

What about the GI50 [2] of the same compound?
Its GI50 is less than 0.01 µM.

What about the Activity (HeLa [5]) of the same compound?
The Activity was “Active”.

And the Activity (HeLa [3])?
The Activity was 73.96%.

Which results are given for COC(=O)[C@H]1C(c2nc3ccc(C)cc3[nH]2)=Cc2cc3c(cc2[C@H]1c1cc(OC)c(OC)c(OC)c1)OCO3?
GI50 (HeLa [1]): 2.8 µM; GI50 (MCF7): 3.07 µM; GI50 [2]: 18.1 µM

Which GI50 (HeLa [1]) does the source give for COC(=O)[C@H]1C(c2nc3ccc(F)c(Cl)c3[nH]2)=Cc2cc3c(cc2[C@H]1c1cc(OC)c(OC)c(OC)c1)OCO3 here?
Its GI50 is 24.2 µM.

And the GI50 (MCF7)?
The GI50 was 2.3 µM.

And the GI50 (MIA PaCa-2)?
The GI50 was “inactive”.

For COC(=O)[C@H]1C(C=O)=Cc2cc3c(cc2[C@H]1c1cc(OC)c(OC)c(OC)c1)OCO3, which GI50 (HeLa [1]) is on record?
The GI50 was 0.69 µM.

What about the GI50 (MCF7) of the same compound?
The GI50 was 0.91 µM.

And the GI50 [2]?
The GI50 was 0.73 µM.

With COC(=O)[C@H]1C(c2nc3cc(Cl)c(Cl)cc3[nH]2)=Cc2cc3c(cc2[C@H]1c1cc(OC)c(OC)c(OC)c1)OCO3 as the compound, how does the GI50 (HeLa [1]) read?
The GI50 was 19.7 µM.

And the GI50 (MCF7)?
Its GI50 is 0.58 µM.

What about the GI50 [2] of the same compound?
Its GI50 is 3.2 µM.

For COC(=O)[C@H]1C(c2nc3ccc(C(F)(F)F)cc3[nH]2)=Cc2cc3c(cc2[C@H]1c1cc(OC)c(OC)c(OC)c1)OCO3, which GI50 (HeLa [1]) is on record?
The GI50 was 5.08 µM.

And the GI50 (MCF7)?
The GI50 was 4.8 µM.

What about the GI50 (MIA PaCa-2) of the same compound?
The GI50 was “inactive”.
